# Test results as given in publication PMC3269340, “Pharmacokinetics of memantine in rats and mice” (PLoS Currents, 2012).
# Columns and labels:
# [1] = Stability in human liver microsomes; assay type: in vitro ADME; details: 0.5 mg/mL pooled male microsomes, read-out: Intrinsic Clearance (Cl int) Liver Microsomes
# Procedure: Memantine (1 μM) was incubated in 0.5 mg/mL of pooled male rat, mouse, or human liver microsomes (obtained commercially), in 0.1 M phosphate buffer at 37 °C. After pre-warming the mixture for 5 min, reactions were initiated by the addition of NADPH (1 mM). Aliquots (80 μL) were taken at 0, 5, 10, 20 and 40 min, and the reaction immediately terminated by adding into 80 μL of acetonitrile containing an analytical internal standard (IS). Samples were centrifuged and the supernatant fractions analyzed by LC-MS/MS with multiple reaction monitoring (MRM). All incubations were performed in duplicate. Testosterone was used as the positive control. The MRM area response ratio of the analyte over IS for Time=0(control) was set to 100%, the relative decrease in MRM area ratio intensity over time against that of the control (percent parent decrease) was used to determine the half-life (t1/2) of memantine in the incubation. Half-life values were calculated from the relationship:
# t1/2 (min) = -0.693/λ, where λ is the slope of the Ln concentration vs time curve. The intrinsic clearance (Clint) was calculated as:
# Clint = (0.693 x incubation volume (μL))/(t½ (min) x mg of microsomal protein)
# [2] = molecular target: T1, human PEPT1 (Homo sapiens, UniProt P46059); experiment: Direct uptake transporter assay, PEPT1; assay type: in vitro ADME; details: for Accumulation in transporter transfected cells: PEPT1-transfected cells; for Accumulation in parental cells: parental CHO cells (PEPT1 line)
# T1 sequence (P46059 1-708): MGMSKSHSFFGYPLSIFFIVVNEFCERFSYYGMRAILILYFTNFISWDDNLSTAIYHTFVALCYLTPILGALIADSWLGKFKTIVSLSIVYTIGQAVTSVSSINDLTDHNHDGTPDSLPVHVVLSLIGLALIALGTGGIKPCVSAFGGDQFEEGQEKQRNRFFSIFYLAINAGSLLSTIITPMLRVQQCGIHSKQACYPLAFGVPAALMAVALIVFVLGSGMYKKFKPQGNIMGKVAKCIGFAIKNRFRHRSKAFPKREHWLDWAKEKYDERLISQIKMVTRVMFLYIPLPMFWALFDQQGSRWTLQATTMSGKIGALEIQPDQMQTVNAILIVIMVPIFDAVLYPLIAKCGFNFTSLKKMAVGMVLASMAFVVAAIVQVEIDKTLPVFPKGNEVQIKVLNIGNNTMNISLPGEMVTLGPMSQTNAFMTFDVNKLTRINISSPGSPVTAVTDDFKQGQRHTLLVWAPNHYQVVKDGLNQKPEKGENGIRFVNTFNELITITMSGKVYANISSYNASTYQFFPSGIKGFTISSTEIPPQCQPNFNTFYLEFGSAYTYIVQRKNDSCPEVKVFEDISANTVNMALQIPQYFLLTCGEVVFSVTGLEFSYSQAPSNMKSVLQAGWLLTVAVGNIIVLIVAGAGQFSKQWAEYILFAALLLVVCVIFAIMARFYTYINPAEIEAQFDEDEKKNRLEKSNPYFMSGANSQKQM
# Procedure: (§1) To determine whether memantine is a substrate of the human OATP2B1 (OATP-B), OCT1, OCT2, OAT3, PEPT1, PEPT2 uptake transporters.
# (§2) The potential for memantine to be a substrate of an uptake transporter was determined directly by comparing the uptake of memantine into cells expressing the selected uptake transporter with its uptake into control cells. Memantine was added to transporter-expressing and control cells at two concentrations (PEPT1 and PEPT2 100 and 300 µM, OCT1 and OCT2 50 and 100 µM, OATP2B1 100 and 300 µM), and incubated with cells for 2 and 20 min at 37±1°C (75 µL final incubation volume). The final concentrations of memantine were selected to be the IC50 of reporter substrate transport inhibition established in the indirect transporter assay and one order of magnitude lower. Incubations were carried out as described in the indirect uptake transporter assays. The concentration of memantine was determined by LC-MS/MS.
# [3] = molecular target: T2, human PEPT2 (Homo sapiens, UniProt Q16348); experiment: Direct uptake transporter assay, PEPT2; assay type: in vitro ADME; details: for Accumulation in transporter transfected cells: PEPT2-transfected cells; for Accumulation in parental cells: parental CHO cells (PEPT2 line)
# T2 construct: expressed in transfected cells; host or cells: CHO cells
# T2 sequence (Q16348 1-729): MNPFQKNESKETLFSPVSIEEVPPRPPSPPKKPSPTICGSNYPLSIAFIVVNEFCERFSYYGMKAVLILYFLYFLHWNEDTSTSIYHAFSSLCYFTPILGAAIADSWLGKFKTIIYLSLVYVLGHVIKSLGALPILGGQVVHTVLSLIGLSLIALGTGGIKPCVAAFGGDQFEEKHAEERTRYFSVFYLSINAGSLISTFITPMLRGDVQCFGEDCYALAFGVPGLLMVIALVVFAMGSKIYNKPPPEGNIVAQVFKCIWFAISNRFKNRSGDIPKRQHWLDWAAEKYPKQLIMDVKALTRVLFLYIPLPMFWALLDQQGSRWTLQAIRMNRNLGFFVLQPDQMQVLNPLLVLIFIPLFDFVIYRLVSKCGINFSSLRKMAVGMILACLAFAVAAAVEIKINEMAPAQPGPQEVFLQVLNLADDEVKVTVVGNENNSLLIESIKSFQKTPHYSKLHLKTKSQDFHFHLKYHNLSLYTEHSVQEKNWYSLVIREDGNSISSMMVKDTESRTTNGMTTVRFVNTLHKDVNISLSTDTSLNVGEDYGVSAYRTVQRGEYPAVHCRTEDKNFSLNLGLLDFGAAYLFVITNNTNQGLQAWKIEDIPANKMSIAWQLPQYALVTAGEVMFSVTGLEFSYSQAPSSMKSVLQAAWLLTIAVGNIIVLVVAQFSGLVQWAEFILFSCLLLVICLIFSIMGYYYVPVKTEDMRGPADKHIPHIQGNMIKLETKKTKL
# Procedure: as §1, §2
# [4] = tested on: Alzheimer's disease patients; details: cited from earlier work
# [5] = no preferential accumulation in transfected over parental cells
structure (smiles),measurement,setting,value
CC12CC3CC(C)(C1)CC(N)(C3)C2 [memantine],microsomal CLint at 1 μM,[1],< 13.9 µL/min/mg
same,Highest Fold Activation,"[2]; PEPT1, 100µM, 20 min","1.1 (100µM, 20 min)"
same,Accumulation in transporter transfected cells,"[2]; 2 min, 100 µM",1073 pmol/mg
same,Accumulation in transporter transfected cells,"[2]; 2 min, 300 µM",2290 pmol/mg
same,Accumulation in transporter transfected cells,"[2]; 20 min, 100 µM",1087 pmol/mg
same,Accumulation in transporter transfected cells,"[2]; 20 min, 300 µM",1682 pmol/mg
same,substrate of PEPT1 uptake transporter,[2]; [5],not a substrate
same,Accumulation in parental cells,"[2]; 2 min, 100 µM",969 pmol/mg
same,Accumulation in parental cells,"[2]; 2 min, 300 µM",2389 pmol/mg
same,Accumulation in parental cells,"[2]; 20 min, 100 µM",981 pmol/mg
same,Accumulation in parental cells,"[2]; 20 min, 300 µM",1614 pmol/mg
same,Highest Fold Activation,"[3]; PEPT2, 100µM, 20 min","0.97 (100µM, 20 min)"
same,Accumulation in transporter transfected cells,"[3]; 2 min, 100 µM",937 pmol/mg
same,Accumulation in transporter transfected cells,"[3]; 2 min, 300 µM",1871 pmol/mg
same,Accumulation in transporter transfected cells,"[3]; 20 min, 100 µM",897 pmol/mg
same,Accumulation in transporter transfected cells,"[3]; 20 min, 300 µM",1759 pmol/mg
same,substrate of PEPT2 uptake transporter,[3]; [5],not a substrate
same,Accumulation in parental cells,"[3]; 2 min, 100 µM",965 pmol/mg
same,Accumulation in parental cells,"[3]; 2 min, 300 µM",2011 pmol/mg
same,Accumulation in parental cells,"[3]; 20 min, 100 µM",1219 pmol/mg
same,Accumulation in parental cells,"[3]; 20 min, 300 µM",2056 pmol/mg
same,efficacy in dementia patients,[4]; 10 mg single daily dose for 12 weeks,demonstrated efficacy
same,efficacy in moderate to severe AD,"[4]; humans, 10 mg twice daily, 6-month study",efficacious
